Laboratory results taken from US20240158446A1, “CYCLIC COMPOUND HAVING SELECTIVE INHIBITORY ACTION ON KRAS OVER HRAS AND NRAS” (CHUGAI SEIYAKU KABUSHIKI KAISHA, priority 2021, published 2024).

How the values were obtained:
[1] = biological target: GDP-bound NRAS wild-type protein (Homo sapiens, UniProt P01111); experiment: Binding to NRAS by surface plasmon resonance (SPR), Single Cycle Kinetics; details: for NRAS/KRAS (ratio of KD value for NRAS to KD value for KRAS) / NRAS/KRAS (ratio of KD value with respect to NRAS to KD value with respect to KRAS): SPR, GDP-bound NRAS wild-type protein vs GDP-bound KRAS wild-type protein; for NRAS/KRAS (ratio of KD value with respect to GDP-bound NRAS wild-type protein to KD value with respect to KRAS): SPR KD ratio NRAS/KRAS, class symbols
[2] = biological target: GDP-bound HRAS wild-type protein (Homo sapiens, UniProt P01112); experiment: Binding to HRAS by surface plasmon resonance (SPR), Single Cycle Kinetics; details: for HRAS/KRAS (ratio of KD value for HRAS to KD value for KRAS) / HRAS/KRAS (ratio of KD value with respect to HRAS to KD value with respect to KRAS): SPR, GDP-bound HRAS wild-type protein vs GDP-bound KRAS wild-type protein; for HRAS/KRAS (ratio of KD value with respect to GDP-bound HRAS wild-type protein to KD value with respect to KRAS): SPR KD ratio HRAS/KRAS, class symbols
Sequence of GDP-bound HRAS wild-type protein (P01112 whole entry): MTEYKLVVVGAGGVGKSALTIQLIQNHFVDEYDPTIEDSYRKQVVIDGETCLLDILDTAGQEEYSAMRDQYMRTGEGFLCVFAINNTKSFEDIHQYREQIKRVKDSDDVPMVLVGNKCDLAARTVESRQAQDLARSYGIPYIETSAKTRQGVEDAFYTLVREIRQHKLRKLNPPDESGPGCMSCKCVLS

Sequence of GDP-bound NRAS wild-type protein (P01111 whole entry): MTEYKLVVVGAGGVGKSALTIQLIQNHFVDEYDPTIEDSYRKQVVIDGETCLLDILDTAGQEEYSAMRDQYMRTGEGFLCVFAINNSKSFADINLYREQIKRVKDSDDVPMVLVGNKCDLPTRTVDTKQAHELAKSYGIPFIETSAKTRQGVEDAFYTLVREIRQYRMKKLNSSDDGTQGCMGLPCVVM

SMILES	NRAS/KRAS (ratio of KD value for NRAS to KD value for KRAS) [1]	HRAS/KRAS (ratio of KD value for HRAS to KD value for KRAS) [2]	NRAS/KRAS (ratio of KD value with respect to GDP-bound NRAS wild-type protein to KD value with respect to KRAS) [1]	HRAS/KRAS (ratio of KD value with respect to GDP-bound HRAS wild-type protein to KD value with respect to KRAS) [2]	further results
CC[C@@H]1C[C@H]2C(=O)NC3(CCC3)C(=O)N(C)[C@@H](C3CCCC3)C(=O)N(C)[C@H](C(=O)N(C)C)CC(=O)N(C)[C@@H](CC(C)C)C(=O)N[C@@H]([C@@H](C)CC)C(=O)N(C)CC(=O)N(C)[C@H]3C/C=C\CCN(C3=O)[C@@H](Cc3ccc(C)cc3)C(=O)N(C)CC(=O)N[C@@H](CCc3cc(F)c(C(F)(F)F)c(F)c3)C(=O)N2C1 [PP2220]	A (a compound having 10 or more and less than 20 is denoted as A)	A (a compound having 10 or more and less than 20 is denoted as A)			
CC[C@H](C)[C@@H]1NC(=O)[C@@H](CC(C)C)N(C)C(=O)C[C@@H](C(=O)N2CCOCC2)N(C)C(=O)[C@H](C2CCCC2)N(C)C(=O)C2(CCCC2)NC(=O)[C@@H]2CCCN2C(=O)[C@H](CCc2cc(F)c(C(F)(F)F)c(F)c2)NC(=O)CN(C)C(=O)[C@H](Cc2ccc(C(F)(F)F)cc2)N2CCCC[C@@H](C2=O)N(C)C(=O)CN(C)C1=O [PP0591]					NRAS/KRAS (ratio of KD value with respect to NRAS to KD value with respect to KRAS) [1]: B (a compound having 3 or more and less than 10 is denoted as B); HRAS/KRAS (ratio of KD value with respect to HRAS to KD value with respect to KRAS) [2]: B (a compound having 3 or more and less than 10 is denoted as B)
CCO[C@@H]1C[C@H]2C(=O)NC3(CCC3)C(=O)N(C)[C@@H](C3CCCC3)C(=O)N(C)[C@H](C(=O)N(C)C)CC(=O)N(C)[C@@H](CC3CCCC3)C(=O)N[C@@H]([C@@H](C)CC)C(=O)N(C)CC(=O)N(C)[C@H]3C/C=C\CCN(C3=O)[C@@H](Cc3ccc(C)cc3)C(=O)N(C)CC(=O)N[C@@H](CCc3ccc(C(F)(F)F)c(CC)c3)C(=O)N2C1 [PP2672]			B (a compound having 3 or more and less than 10 is denoted as B)	B (a compound having 3 or more and less than 10 is denoted as B)	
CCO[C@@H]1C[C@H]2C(=O)NC3(CCC3)C(=O)N(C)[C@@H](C(CC)CC)C(=O)N(C)[C@H](C(=O)N(C)C)CC(=O)N(C)[C@H]3CCCC/C=C/c4ccc(cc4)C[C@@H](C(=O)N(C)CC(=O)N[C@@H](CCc4ccc(Cl)c(Cl)c4)C(=O)N2C1)N1CC/C=C\C[C@@H](C1=O)N(C)C(=O)CN(C1CC1)C(=O)[C@H]([C@@H](C)CC)NC3=O [PP2605]			AA (a compound having 20 or more is denoted as AA)	A (a compound having 10 or more and less than 20 is denoted as A)	
CCO[C@@H]1C[C@H]2C(=O)NC3(CCC3)C(=O)N(C)[C@@H](C3CCCC3)C(=O)N(C)[C@H](C(=O)N(C)C)CC(=O)N(C)[C@@H](CC(C)C)C(=O)N[C@@H]([C@@H](C)CC)C(=O)N(C)CC(=O)N(C)[C@H]3C[C@@H](C)CCN(C3=O)[C@@H](Cc3ccc(C(F)(F)F)cc3)C(=O)N(C)CC(=O)N[C@@H](CCc3cc(F)c(C(F)(F)F)c(F)c3)C(=O)N2C1 [PP1018]	C (A compound having a KD ratio of 0.1 or more and less than 3 is denoted as C)	B (a compound having 3 or more and less than 10 is denoted as B)			
CCO[C@@H]1C[C@H]2C(=O)NC3(CCC3)C(=O)N(C)[C@@H](C3CCCC3)C(=O)N(C)[C@H](C(=O)N(C)C)CC(=O)N(C)[C@@H](CC3CCCC3)C(=O)N[C@@H]([C@@H](C)CC)C(=O)N(C)CC(=O)N(C)[C@H]3C/C=C\CCN(C3=O)[C@@H](Cc3ccc(C)cc3)C(=O)N(C)CC(=O)N[C@@H](CCc3ccc(C4CC4)c(Cl)c3)C(=O)N2C1 [PP2684]			A (a compound having 10 or more and less than 20 is denoted as A)	A (a compound having 10 or more and less than 20 is denoted as A)	
CC[C@H](C)[C@@H]1NC(=O)[C@H](CC(C)C)N(C)C(=O)C[C@@H](C(=O)N2CCOCC2)N(C)C(=O)[C@H](C2CCCC2)N(C)C(=O)C2(CCC2)NC(=O)[C@@H]2[C@H](OC)CCN2C(=O)[C@H](CCc2cc(F)c(C(F)(F)F)c(F)c2)NC(=O)CN(C)C(=O)[C@H](Cc2ccc(C(F)(F)F)cc2)N2CCCC[C@@H](C2=O)N(C)C(=O)CN(C)C1=O [PP1078]	B (a compound having 3 or more and less than 10 is denoted as B)	B (a compound having 3 or more and less than 10 is denoted as B)			
CCO[C@@H]1C[C@H]2C(=O)NC3(CC(C)(C)C3)C(=O)N(C)[C@@H](C3CCCC3)C(=O)N(C)[C@H](C(=O)N(C)CC)CC(=O)N(C)[C@H]3CC/C=C/c4ccc(cc4)C[C@@H](C(=O)N(C)CC(=O)N[C@@H](CCc4ccc(Cl)c(Cl)c4)C(=O)N2C1)N1CC/C=C\C[C@@H](C1=O)N(C)C(=O)CN(C1CC1)C(=O)[C@H]([C@@H](C)CC)NC3=O [PP2598]			A (a compound having 10 or more and less than 20 is denoted as A)	A (a compound having 10 or more and less than 20 is denoted as A)	
CCC(CC)[C@H]1C(=O)N(C)[C@H](C(=O)N(C)C)CC(=O)N(C)[C@@H](COC)C(=O)N[C@@H]([C@@H](C)CC)C(=O)N(C)CC(=O)N(C)[C@H]2C/C=C\CCN(C2=O)[C@@H](Cc2ccc(C)cc2)C(=O)N(C)CC(=O)N[C@@H](CCc2ccc(Cl)c(Cl)c2)C(=O)N2C[C@H](OC(C)C)C[C@H]2C(=O)N(C)C2(CC(C)(C)C2)C(=O)N1C [PP2814]			AA (a compound having 20 or more is denoted as AA)	A (a compound having 10 or more and less than 20 is denoted as A)	
CCO[C@@H]1C[C@H]2C(=O)N(C)C3(CC(C)(C)C3)C(=O)N(C)[C@@H](C(CC)CC)C(=O)N(C)[C@H](C(=O)N(C)C)CC(=O)N(C)[C@@H](COC)C(=O)N[C@@H]([C@@H](C)CC)C(=O)N(C)CC(=O)N(C)[C@H]3C/C=C\CCN(C3=O)[C@@H](Cc3ccc(C)cc3)C(=O)N(C)CC(=O)N[C@@H](CCc3ccc(Cl)c(Cl)c3)C(=O)N2C1 [PP2810]			AA (a compound having 20 or more is denoted as AA)	A (a compound having 10 or more and less than 20 is denoted as A)	
CCO[C@@H]1C[C@H]2C(=O)NC3(CCC3)C(=O)N(C)[C@@H](C3CCCC3)C(=O)N(C)[C@H](C(=O)N(C)C)CC(=O)N(C)[C@@H](CCOC)C(=O)N[C@@H]([C@@H](C)CC)C(=O)N(C)CC(=O)N(C)[C@H]3CCCCCN(C3=O)[C@@H](Cc3ccc(C(F)(F)F)cc3)C(=O)N(C)CC(=O)N[C@@H](CCc3cc(F)c(C(F)(F)F)c(F)c3)C(=O)N2C1 [PP0675]					NRAS/KRAS (ratio of KD value with respect to NRAS to KD value with respect to KRAS) [1]: B (a compound having 3 or more and less than 10 is denoted as B); HRAS/KRAS (ratio of KD value with respect to HRAS to KD value with respect to KRAS) [2]: B (a compound having 3 or more and less than 10 is denoted as B)
CCC[C@H]1C(=O)N[C@@H]([C@@H](C)CC)C(=O)N(C)CC(=O)N(C)[C@H]2C/C=C\CCN(C2=O)[C@@H](Cc2ccc(C(F)(F)F)cc2)C(=O)N(C)CC(=O)N[C@@H](CCc2ccc(Cl)c(Cl)c2)C(=O)N2C[C@H](OCC)C[C@H]2C(=O)NC2(CC(C)(C)C2)C(=O)N(C)[C@@H](C(CC)CC)C(=O)N(C)[C@H](C(=O)N(C)C)CC(=O)N1C [PP2175]	AA (a compound having 20 or more is denoted as AA)	A (a compound having 10 or more and less than 20 is denoted as A)			
CCC[C@H]1C(=O)N[C@@H]([C@@H](C)CC)C(=O)N(C)CC(=O)N(C)[C@H]2C/C=C\CCN(C2=O)[C@@H](Cc2ccc(C(F)(F)F)cc2)C(=O)N(C)CC(=O)N[C@@H](CCc2ccc3c(C)c(C)n(C)c3c2)C(=O)N2C[C@H](OCC)C[C@H]2C(=O)NC2(CC(C)(C)C2)C(=O)N(C)[C@@H](C(CC)CC)C(=O)N(C)[C@H](C(=O)N(C)C)CC(=O)N1C [PP2904]			AA (a compound having 20 or more is denoted as AA)	A (a compound having 10 or more and less than 20 is denoted as A)	
CCC(CC)[C@H]1C(=O)N(C)[C@H](C(=O)N(C)C)CC(=O)N(C)[C@@H](COC)C(=O)N[C@@H]([C@@H](C)CC)C(=O)N(C)CC(=O)N(C)[C@H]2C/C=C\CCN(C2=O)[C@@H](Cc2ccc(C)cc2)C(=O)N(C)CC(=O)N[C@@H](CCc2cc(F)c(C(F)(F)F)c(F)c2)C(=O)N2CCCCC[C@H]2C(=O)NC2(CC(C)(C)C2)C(=O)N1C [PP2960]			A (a compound having 10 or more and less than 20 is denoted as A)	A (a compound having 10 or more and less than 20 is denoted as A)	
CCC[C@H]1C(=O)N[C@@H](C(CC)CC)C(=O)N(C)CC(=O)N(C)[C@H]2C/C=C\CCN(C2=O)[C@@H](Cc2ccc(C)cc2)C(=O)N(C)CC(=O)N[C@@H](CCc2ccc(C(F)(F)F)c(Cl)c2)C(=O)N2C[C@H](OCC)C[C@H]2C(=O)NC2(CC(C)(C)C2)C(=O)N(C)[C@@H](CC(C)C)C(=O)N(C)[C@H](C(=O)N(C)C)CC(=O)N1C [PP2202]	A (a compound having 10 or more and less than 20 is denoted as A)	A (a compound having 10 or more and less than 20 is denoted as A)			
CCO[C@@H]1C[C@H]2C(=O)NC3(CC(C)(C)C3)C(=O)N(C)[C@@H](C(CC)CC)C(=O)N(C)[C@H](C(=O)N(C)C)CC(=O)N(C)[C@@H](CC3CC3)C(=O)N[C@@H]([C@@H](C)CC)C(=O)N(C)CC(=O)N(C)[C@H]3C/C=C\CCN(C3=O)[C@@H](Cc3ccc(C)cc3)C(=O)N(C)CC(=O)N[C@@H](CCc3ccc(Cl)c(Cl)c3)C(=O)N2C1 [PP2182]	AA (a compound having 20 or more is denoted as AA)	A (a compound having 10 or more and less than 20 is denoted as A)			
